Reference: US9340532B2, “Methods and compositions for inhibiting CNKSR1” (PHUSIS THERAPEUTICS, INC., priority 2012, dated 2016)
Several values for one entry are separate records, joined by “and”; a condition that tells them apart may be missing. Equal values may be shown once. Read-outs that look alike come from different tables or passages of the source.

Tests used:
CNK1 PH-domain (CNKSR1) = target: T1, CNK1 PH-domain (CNKSR1) (Homo sapiens, UniProt Q969H4); experiment: SPR binding assay (Biacore T100), CNK1 PH-domain; conditions: for Surface Plasmon Resonance CNKSR1 binding (RU max) / Surface Plasmon Resonance CNKSR1 stability (RU max post-injection): date 12 09 13
T1 construct: The PH-domain His-fusion proteins (CNK1 and AKT1) were expressed and immobilized on a NTA chip; made in house
T1 sequence (Q969H4 403-502 limits assumed): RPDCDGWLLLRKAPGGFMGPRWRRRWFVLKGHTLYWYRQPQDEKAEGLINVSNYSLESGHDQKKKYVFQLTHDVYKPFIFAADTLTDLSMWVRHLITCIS
Description: (§1) All interaction analyses were done with a Biacore T100 Control Software v3.2, and BIAevaluation v4.1 analysis software (Biacore). The PH-domain His-fusion proteins (CNK1 and AKT1) were expressed and immobilized on a NTA chip to a level of 10,000 response units or less. Small molecule analytes at concentrations ranging from 50 μM to 0.010 μM were injected at a high flow rate (30 μL/min) DMSO concentrations in all samples and running buffer were 1-5% (v/v).
(§2) Other docking was performed using modeling algorithms with state-of-the-art commercial drug discovery software (Schrodinger suite). […] Additionally, ligand-based approaches provided an alternative to structure based drug discovery. Ligand-based virtual screening methodologies can take into account shape and electrostatics (like ROCS) and the pharmacophoric features (acceptor, donor, hydrophobic, aromatic, etc.) of its functional groups. […] SPR interaction analyses of all other compounds was undertaken using a Biacore T100 with Control and Evaluation software kit.

AKT1 PH-domain = target: T2, AKT1 PH-domain (Homo sapiens, UniProt P31749); experiment: SPR binding assay (Biacore T100), AKT1 PH-domain; conditions: read-out: AKT KD
T2 construct: The PH-domain His-fusion proteins (CNK1 and AKT1) were expressed and immobilized on a NTA chip; made in house
Description: as §1
(§3) A commercially available docking package, GOLD (GOLD [3.2], CCDC: Cambridge, UK, 2007) was used to evaluate the docking of compounds 1-7 into the binding pocket, see e.g. Table 5. Other docking was performed using modeling algorithms with state-of-the-art commercial drug discovery software (Schrodinger suite). GLIDE was chosen as the docking algorithm used to select and optimize compounds, providing a GlideScore as a rough estimate of binding affinity that was used to rank and select the best compounds. Additionally, ligand-based approaches provided an alternative to structure based drug discovery. Ligand-based virtual screening methodologies can take into account shape and electrostatics (like ROCS) and the pharmacophoric features (acceptor, donor, hydrophobic, aromatic, etc.) of its functional groups. Inositol tetraphosphate (IP4) binding to the PH-domain of CNKSR1 provided a good starting point for shape screening. Both structure-based and ligand-based approaches were used to find novel compounds (Table 7) and to refine and improve lead compounds (Tables 8, and 9). SPR interaction analyses for Compounds 1 through 7 were performed with a Biacore 2000, using Biacore2000 Control Software v3.2 and BIAevaluation v4.1 analysis software (Biacore) as described in Mol Cancer Ther 7:2621 (2008). SPR interaction analyses of all other compounds was undertaken using a Biacore T100 with Control and Evaluation software kit.

PLE = experiment: SPR binding, PLE; conditions: Table 8
Description: as §3, with “SPR interaction analyses of all other compounds was undertaken using a Biacore T100 with Control and Evaluation software kit.” left out

[1] = tested on: A549 (KRAS mutant cell line); experiment: Proliferation Assay A549; format: cell-based; conditions: Homo sapiens, N = 2 experiments
Description: (§4) The isogenic KRAS lines harboring G12D, G12C, and G12V were obtained from Horizon Discovery labs on a one year lease. These cells were cultured in McCoys media with 10% FBS to 80% confluency. Cells were then released from flasks via trypsinization and plated into 96-well plates at an initial density range of 2000 cells per well. Cells were allowed 24 hours to attach, and then the agents were added to the culture media at a range of concentrations from 0-100 μM. Cells were incubated for 72 hours with the drugs, and then viability was assessed using an MTS viability assay. Cells were exposed to MTS reagent (Promega) dissolved in PBS (Hyclone) at a concentration of 200 μL reagent/mL media for 2 hours. Absorbance was then read at 490 nm, and viability was expressed as a percentage normalized between the negative control (no cells plated) and the condition of cells with no drug added (100% viability) normalized as the upper limit of viability.
(§5) Our panel of 30 cell lines and an extensive characterization were obtained from Dr. John Minna (UTSW). All cell lines were cultured in RPMI 1640 with 10% FBS. Cells were treated with concentrations of agents at concentrations 0.01 to 50 μM and evaluated as described above. IC50's were determined using Excelfit.

[2] = tested on: H1373 (KRAS mutant cell line); experiment: Proliferation Assay H1373; format: cell-based; conditions: Homo sapiens, NCI-H1373, N = 2 experiments
Description: as §4, §5

[3] = tested on: H1975 (KRAS wildtype cell line); experiment: Proliferation Assay H1975; format: cell-based; conditions: Homo sapiens, NCI-H1975, n = 1
Description: as §4, §5

[4] = tested on: H226 (KRAS wildtype cell line); experiment: Proliferation Assay H226; format: cell-based; conditions: Homo sapiens, NCI-H226, n = 1
Description: as §4, §5

[5] = tested on: mut-KRAS NSCLC cell lines; experiment: Screening against NSCLC cell line panel, mut-KRAS lines; format: cell-based
Description: as §4, §5

wt-KRAS NSCLC cell lines = experiment: Screening against NSCLC cell line panel, wt-KRAS lines; format: cell-based; conditions: Table 6, mean of 3 wt-KRAS lines; read-out: NSCL cell line cytotoxicity IC50 wt-KRAS
Description: as §4, §5

[6] = Mouse pharmacokinetics (iv); format: in vivo; conditions: for clearance: in vivo
PH-domain of AKT = target: T3, PH-domain of AKT (Homo sapiens, UniProt P31749); experiment: SPR binding to expressed PH-domain of AKT
T3 construct: made in house
Description: (§6) In embodiments, the binding of identified compounds to the crystal structures of other PH-domain signaling proteins, AKT, PDPK1, Btk, and Tiam1 can be predicted. In such embodiments, the Kds exceed about 100 μM. In other embodiments, SPR can measure the binding of identified compounds to the expressed PH-domains of AKT, PDPK1 and Tiam1. […] Thus, the identified compounds appear have, at least, about 50 to about 100 fold selectivity for CNKSR1 compared to the other PH-domains studied.
(§7) A commercially available docking package, GOLD (GOLD [3.2], CCDC: Cambridge, UK, 2007) was used to evaluate the docking of compounds 1-7 into the binding pocket, see e.g. Table 5. Other docking was performed using modeling algorithms with state-of-the-art commercial drug discovery software (Schrodinger suite). GLIDE was chosen as the docking algorithm used to select and optimize compounds, providing a GlideScore as a rough estimate of binding affinity that was used to rank and select the best compounds. Additionally, ligand-based approaches provided an alternative to structure based drug discovery. Ligand-based virtual screening methodologies can take into account shape and electrostatics (like ROCS) and the pharmacophoric features (acceptor, donor, hydrophobic, aromatic, etc.) of its functional groups. […]

PH-domain of PDPK1 = target: T4, PH-domain of PDPK1 (Homo sapiens, UniProt O15530); experiment: SPR binding to expressed PH-domain of PDPK1
T4 construct: made in house
T4 sequence (O15530 459-550 limits assumed): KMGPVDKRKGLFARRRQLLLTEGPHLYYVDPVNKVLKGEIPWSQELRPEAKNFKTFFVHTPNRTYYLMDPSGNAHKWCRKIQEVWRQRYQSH
Description: as §6, §7

PH-domain of Tiam1 = experiment: SPR binding to expressed PH-domain of Tiam1
Description: as §6, §7

PH-domain of CNKSR1 = target: T5, PH-domain of CNKSR1 (Homo sapiens, UniProt Q969H4); experiment: SPR binding (Biacore 2000) to CNKSR1 PH-domain, initial hits; conditions: Table 5
T5 sequence (Q969H4 403-502 limits assumed): T1 sequence (Q969H4 403-502 limits assumed)
Description: In embodiments, a homology model for the PH-domain of CNSKR1 based on known PH-domain crystal structures can be developed. The docking program PHuDock® can be used to identify potential inhibitors of CNKSR1. […] The binding of the compounds to the expressed PH-domain of CNKSR1 (KDobs) can be measured by surface plasmon resonance (SPR) spectroscopy.
as §2

[7] = Pharmacokinetics after oral administration; format: in vivo, mice; conditions: compound 8 administered orally to mice at the same dose (200 mg/kg); 200 mg/kg
Description: In order to understand better the reasons for the antitumor activity of compound #7 pharmacokinetic studies were conducted. […] Following oral administration in vivo plasma concentrations of the parent compound were low, about 3 μg/ml (7 μM) whereas the de-esterified acid form (compound 8) was present at high peak concentrations of around 50 μg/ml (128 μM). When compound 8 was administered orally to mice at the same dose even higher peak concentrations of 90 μg/ml (230 μM) were achieved.

[8] = Table 6, mean of 3 mut-KRAS lines, read-out: NSCL cell line cytotoxicity IC50 mut-KRAS

T2 sequence (P31749 5-108 limits assumed): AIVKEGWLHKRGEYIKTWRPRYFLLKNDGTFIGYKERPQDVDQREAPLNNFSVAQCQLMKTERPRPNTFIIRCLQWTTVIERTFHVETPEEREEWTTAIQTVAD
T3 sequence (P31749 5-108 limits assumed): as above

Kd (CNK1 PH-domain (CNKSR1); Table 8, read-out: CNK KD) [µM] | Surface Plasmon Resonance CNKSR1 binding (RU max) (CNK1 PH-domain (CNKSR1)) [RU * 100/Da] | Surface Plasmon Resonance CNKSR1 stability (RU max post-injection) (CNK1 PH-domain (CNKSR1)) [RU * 100/Da] | Kd (AKT1 PH-domain; Table 8) [µM] | Kd (PLE) [µM] | IC50 [1] [µM] | IC50 [2] [µM] | IC50 [3] [µM] | IC50 [4] [µM] | Kd (CNK1 PH-domain (CNKSR1); Table 6, read-out: CNKS KD) [µM] | Kd (AKT1 PH-domain; Table 6) [µM] | t1/2β [6] [h] | clearance [6] [mL/min/kg] | SMILES | IC50 [5, 8] [µM] | IC50 (wt-KRAS NSCLC cell lines) [µM] | other results
0.157 | 2.635 | 3.148 | 330 | 300 | 75 | > 100 | > 100 | > 100 | – | – | – | – | CCOC(=O)/C=C/c1c(O)c(OC)cc(NS(=O)(=O)c2cccs2)c1SC [Compound 103, ethyl (2E)-3-[2-hydroxy-3-methoxy-6-(methylsulfanyl)-5-(thiopliene-2-sulfonamido)phenyl]prop-2-enoate] | – | – | –
0.186 | 0.817 | 1.138 | 75.2 | 261 | > 100 | > 100 | > 100 | > 100 | – | – | – | – | CCOC(=O)/C=C/c1cc(NS(=O)(=O)c2cccs2)c2c(c1O)OCO2 [Compound 88, (E)-ethyl 3-(4-hydroxy-7-(thiophene-2-sulfonamido)benzo[d][1,3]dioxol-5-yl)acrylate] | – | – | –

More lines, now with the values behind:

SMILES | Kd (CNK1 PH-domain (CNKSR1); Table 8, read-out: CNK KD) [µM] | Surface Plasmon Resonance CNKSR1 binding (RU max) (CNK1 PH-domain (CNKSR1)) [RU * 100/Da] | Surface Plasmon Resonance CNKSR1 stability (RU max post-injection) (CNK1 PH-domain (CNKSR1)) [RU * 100/Da] | Kd (AKT1 PH-domain; Table 8) [µM] | Kd (PLE) [µM] | IC50 [1] [µM] | IC50 [2] [µM] | IC50 [3] [µM] | IC50 [4] [µM] | Kd (CNK1 PH-domain (CNKSR1); Table 6, read-out: CNKS KD) [µM] | Kd (AKT1 PH-domain; Table 6) [µM] | t1/2β [6] [h] | clearance [6] [mL/min/kg] | IC50 [5, 8] [µM] | IC50 (wt-KRAS NSCLC cell lines) [µM] | other results
Cc1ccc(-c2csc(Cn3nc(CC4OCCCO4)c4ccccc4c3=O)n2)cc1 [Compound 9] | – | – | – | – | – | 42 | > 100 | 100 | > 100 | 0.026 | 66.3 | 4.33 | 133 | 25 | 55 | –
CCOC(=O)Cc1nn(SCC(=O)O)c(=O)c2ccccc12 [#4] | – | – | – | – | – | – | – | – | – | – | – | – | – | – | – | SPR binding to PH-domain of AKT (PH-domain of AKT): No measurable binding; SPR binding to PH-domain of PDPK1 (PH-domain of PDPK1): No measurable binding; SPR binding to PH-domain of Tiam1 (PH-domain of Tiam1): No measurable binding; inhibition of mut-KRAS cell growth (in words) ([5]; FIG. 3 and FIG. 5): low micromolar inhibition
CC(=O)Nc1cccc(-n2nnc(SCC(=O)c3cc(-c4ccccc4)no3)n2)c1 [Compound 120] | – | – | – | – | – | – | – | – | – | – | – | – | – | – | – | Kd (PH-domain of CNKSR1): 3.3 ± 1.2 µM; IC50 ([5]; Table 5, read-out: Mean IC50 mut-KRAS): 47 ± 5.2 µM
Cc1ccc(-c2csc(Cn3nc(CC(=O)O)c4ccccc4c3=O)n2)cc1 [Compound 8] | – | – | – | – | – | – | – | – | – | > 100 | 51.6 | 1.2 | 4740 | > 100 | > 100 | activity in cells in culture ([5]; FIG. 5): inactive; peak plasma concentration [7]: 90 μg/ml and 230 μM
